Read-outs that look alike come from different tables or passages of the source.

Results on 19 compounds are retold here after patent publication US9096615B2, “Bridged bicyclic amino thiazine dioxide compounds as inhibitors of beta-secretase and methods of use thereof” (AMGEN INC., priority 2013, dated 2015).

Experiment [1] has as its target BACE1 (Homo sapiens, UniProt P56817). The experiment is described as follows: In vitro enzymatic BACE FRET assay. Format: biochemical. In a few lines: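 BACE (0.2 nM) pre-incubated 1 h with serially diluted inhibitor in 0.05 M acetate pH 4.2, 10% DMSO, 100 uM genapol; 50 nM FRET peptide substrate added, 1 h incubation. Stopped with Tris to neutral pH; fluorescence read (ex 488, […]).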

In experiment [2] the test system is Aβ40 in conditioned medium of cells stably expressing Amyloid Precursor Protein (APP). The experiment can be described thus: In vitro BACE cell-based assay (HEK cell assay, Aβ40 sandwich ELISA). The following applies: Homo sapiens, HEK293. In a few lines:
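APP-stable cells were cultured 24 h at 37 °C, then given compound as 10-point dose-response (top 100 μM or 10 μM; 0.1% DMSO final) for 24 h. Aβ40 in conditioned medium was measured by sandwich ELISA (pAb40 capture, biotinylated 6E10 detection, Eu time-resolved fluorescence). IC50 from percent inhibition versus concentration.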
Background: ELISA stands for enzyme-linked immunosorbent assay.

For experiment [3], the target named is T1, Cathepsin D (Cat D) (Homo sapiens, UniProt P07339).
T1 construct: made in house; host or cells: CHO cells
T1 sequence (P07339 65-412, species assumed): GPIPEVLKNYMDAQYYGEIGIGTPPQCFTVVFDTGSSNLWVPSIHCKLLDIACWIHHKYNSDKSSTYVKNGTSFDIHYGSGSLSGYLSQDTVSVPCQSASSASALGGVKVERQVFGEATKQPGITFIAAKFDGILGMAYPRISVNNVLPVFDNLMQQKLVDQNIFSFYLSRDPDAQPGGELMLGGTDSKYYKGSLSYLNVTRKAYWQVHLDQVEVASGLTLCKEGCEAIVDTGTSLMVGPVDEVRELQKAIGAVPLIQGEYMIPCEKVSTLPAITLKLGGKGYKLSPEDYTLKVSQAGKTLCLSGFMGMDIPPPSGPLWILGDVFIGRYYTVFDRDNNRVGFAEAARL
The experiment is described as follows: In vitro enzymatic Cathepsin D (Cat D) FRET assay. Format: biochemical. In outline: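 Recombinant human Cat D expressed in CHO cells, 9 nM, pre-incubated 1 h with inhibitor in 0.05 M citrate pH 3.5, 10% DMSO, 5 mM CHAPS. Reaction started with 20 nM FRET peptide substrate, run 1 h, stopped with Tris to neutral pH; fluorescence read at ex 500/em 580 nm.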

Setting [4] is: read-out: BACE1 FRET assay IC50.
The mark [5] stands for this setting: Aβ40, 24 h incubation, read-out: HEK cell assay IC50.
Where [6] appears, read: average IC50, read-out: BACE1 Enzyme assay IC50.
[7] abbreviates: average IC50, read-out: BACE1 cell assay IC50.
Where [8] appears, read: average IC50, first procedure, read-out: CatD IC50.

BACE1, sequence (P56817 46-501, species assumed): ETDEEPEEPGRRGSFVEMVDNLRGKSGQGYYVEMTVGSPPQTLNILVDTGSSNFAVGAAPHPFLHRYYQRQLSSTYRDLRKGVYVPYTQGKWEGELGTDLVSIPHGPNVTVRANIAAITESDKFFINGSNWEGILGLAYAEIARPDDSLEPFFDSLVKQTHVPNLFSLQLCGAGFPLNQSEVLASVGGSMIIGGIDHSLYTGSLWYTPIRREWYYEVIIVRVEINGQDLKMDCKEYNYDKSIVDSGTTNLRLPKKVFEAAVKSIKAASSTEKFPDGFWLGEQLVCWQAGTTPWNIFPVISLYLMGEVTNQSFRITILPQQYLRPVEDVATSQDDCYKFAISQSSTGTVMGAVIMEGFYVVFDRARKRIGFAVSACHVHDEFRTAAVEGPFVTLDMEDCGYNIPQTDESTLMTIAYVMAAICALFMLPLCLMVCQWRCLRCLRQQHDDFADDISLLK

`Cc1cc(OC(F)F)cnc1C(=O)Nc1ccc(F)c([C@@]2(C)N=C(N)[C@@]3(C)CCC[C@@H]2S3(=O)=O)c1` [Example 5, N-(3-((1S,2R,5R)-4-Amino-2,5-dimethyl-9,9-dioxido-9-thia-3-azabicyclo[3.3.1]non-3-en-2-yl)-4-fluorophenyl)-5-(difluoromethoxy)-3-methylpicolinamide]: the results for the IC50 in experiment [1] (setting [4]), in experiment [2] (setting [5]) and in experiment [3] (read-out: CatD IC50) were 3 nM, 4 nM and 105 µM, respectively.
Taken in the same sequence, the figures for `Cc1cc(OC(F)F)cnc1C(=O)Nc1ccc(F)c([C@@]2(C)N=C(N)[C@]3(C)CCC[C@H]2S3(=O)=O)c1` [Example 6, N-(3-((1R,2R,5S)-4-Amino-2,5-dimethyl-9,9-dioxido-9-thia-3-azabicyclo[3.3.1]non-3-en-2-yl)-4-fluorophenyl)-5-(difluoromethoxy)-3-methylpicolinamide] were 10 nM, 4 nM and 215 µM.
As for `C[C@]12CC[C@H]([C@@](C)(c3cc(NC(=O)c4ccc(C(F)(F)F)cc4F)ccc3F)N=C1N)S2(=O)=O` [Example 122, N-(3-((1R,2R,5S)-4-amino-2,5-dimethyl-8,8-dioxido-8-thia-3-azabicyclo[3.2.1]oct-3-en-2-yl)-4-fluorophenyl)-2-fluoro-4-(trifluoromethyl)benzamide], the results for the IC50 in experiment [1] (setting [6]), in experiment [2] (setting [7]) and in experiment [3] (setting [8]) were 905 nM, 255 nM and above 400 µM, respectively.
Taken in the same sequence, the figures for `COc1cnc(C(=O)Nc2ccc(F)c([C@@]3(CF)N=C(N)[C@]4(C)CC[C@H]3S4(=O)=O)c2)cn1` [Example 75, N-(3-((1R,2S,5S)-4-amino-2-(fluoromethyl)-5-methyl-8,8-dioxido-8-thia-3-azabicyclo[3.2.1]oct-3-en-2-yl)-4-fluorophenyl)-5-methoxy-2-pyrazinecarboxamide] were 97 nM, 95 nM and above 400 µM.
With `Cc1c(C(=O)Nc2ccc(F)c([C@@]3(C)N=C(N)[C@]4(C)CC[C@H]3S4(=O)=O)c2)nc2ccc(Cl)cn12` [Example 28, N-(3-((1R,2R,5S)-4-Amino-2,5-dimethyl-8,8-dioxido-8-thia-3-azabicyclo[3.2.1]oct-3-en-2-yl)-4-fluorophenyl)-6-chloro-3-methylimidazo[1,2-a]pyridine-2-carboxamide], the 50% inhibitory concentration (IC50) in experiment [1] (setting [4]) was 70 nM; in experiment [2] (setting [5]), 10 nM; in experiment [3] (read-out: Cat D IC50 value), above 400 µM; in experiment [3] (read-out: CatD IC50), above 400 µM.
`C[C@]1(c2cc(Nc3nccc4nc(C(F)(F)F)cnc34)ccc2F)N=C(N)[C@@]2(C)CC[C@@H]1S2(=O)=O` [Example 86, N-(3-((1S,2R,5R)-4-amino-2,5-dimethyl-8,8-dioxido-8-thia-3-azabicyclo[3.2.1]oct-3-en-2-yl)-4-fluorophenyl)-2-(trifluoromethyl)pyrido[3,4-b]pyrazin-5-amine]: the values for the IC50 in experiment [1] (setting [6]), in experiment [2] (setting [7]) and in experiment [3] (setting [8]) were 23 nM, 67 nM and above 44.4 µM, respectively.
With `Cc1cc(Cl)cnc1C(=O)Nc1ccc(F)c([C@@]2(C)N=C(N)[C@@]3(C)CC[C@]2(C)S3(=O)=O)c1` [Example 31, N-(3-((1S,2R,5R)-4-amino-1,2,5-trimethyl-8,8-dioxido-8-thia-3-azabicyclo[3.2.1]oct-3-en-2-yl)-4-fluorophenyl)-5-chloro-3-methylpicolinamide], the IC50 in experiment [1] (setting [4]) stood at 4 nM; in experiment [2] (setting [5]) it was 12 nM; in experiment [3] (read-out: CatD IC50) it was 56.9 µM.
As for `Cc1cc(OC(F)F)cnc1C(=O)Nc1ccc(F)c([C@@]2(C)N=C(N)[C@@]3(C)CCC[C@]2(C)S3(=O)=O)c1` [Example 13, N-(3-((1S,2R,5R)-4-Amino-1,2,5-trimethyl-9,9-dioxido-9-thia-3-azabicyclo[3.3.1]non-3-en-2-yl)-4-fluorophenyl)-5-(difluoromethoxy)-3-methylpicolinamide], the values for the IC50 in experiment [1] (setting [4]), in experiment [2] (setting [5]) and in experiment [3] (read-out: CatD IC50) were 13 nM, 6 nM and 8.64 µM, respectively.
The like results for `Cc1cc(OC(F)F)cnc1C(=O)Nc1ccc(F)c([C@@]2(C)N=C(N)[C@@]3(C)CCC[C@]2(F)S3(=O)=O)c1` [Example 9, N-(3-((1S,2R,5R)-4-Amino-1-fluoro-2,5-dimethyl-9,9-dioxido-9-thia-3-azabicyclo[3.3.1]non-3-en-2-yl)-4-fluorophenyl)-5-(difluoromethoxy)-3-methylpicolinamide] were, in that order, 7 nM, 149 nM and 19 µM.
As to `COC[C@]12CC[C@H]([C@@](C)(c3cc(NC(=O)c4ncc(Cl)cc4C)ccc3F)N=C1N)S2(=O)=O` [Example 142, N-(3-((1R,2R,5S)-4-amino-5-(methoxymethyl)-2-methyl-8,8-dioxido-8-thia-3-azabicyclo[3.2.1]oct-3-en-2-yl)-4-fluorophenyl)-5-chloro-3-methyl-2-pyridinecarboxamide], the IC50 is 93 nM in experiment [1] (setting [6]), 482 nM in experiment [2] (setting [7]) and above 400 µM in experiment [3] (setting [8]).
Taken in the same sequence, the figures for `C[C@]12CC[C@H]([C@@](C)(c3cc(Nc4ncc(F)c5cc(OCC6CC6)cnc45)ccc3F)N=C1N)S2(=O)=O` [Example 136, N-(3-((1R,2R,5S)-4-amino-2,5-dimethyl-8,8-dioxido-8-thia-3-azabicyclo[3.2.1]oct-3-en-2-yl)-4-fluorophenyl)-3-(cyclopropylmethoxy)-5-fluoro-1,7-naphthyridin-8-amine] were 61 nM, 253 nM and 5340 µM.
In the case of `Cc1cc(C(F)(F)F)cnc1C(=O)Nc1ccc(F)c([C@@]2(C)N=C(N)[C@]3(C)CC[C@H]2S3(=O)=O)c1` [Example 27, N-(3-((1R,2R,5S)-4-Amino-2,5-dimethyl-8,8-dioxido-8-thia-3-azabicyclo[3.2.1]oct-3-en-2-yl)-4-fluorophenyl)-3-methyl-5-(trifluoromethyl)picolinamide], the IC50 in experiment [1] (setting [4]) came out at 14 nM; in experiment [2] (setting [5]), 2 nM; in experiment [3] (read-out: CatD IC50), 2040 µM.
Turning to `C[C@]1(c2cc(NC(=O)c3ccc(C#N)cc3F)ccc2F)N=C(N)[C@@]2(C)CC[C@@H]1S2(=O)=O` [Example 127, N-(3-((1S,2R,5R)-4-amino-2,5-dimethyl-8,8-dioxido-8-thia-3-azabicyclo[3.2.1]oct-3-en-2-yl)-4-fluorophenyl)-4-cyano-2-fluorobenzamide], the results for the IC50 in experiment [1] (setting [6]), in experiment [2] (setting [7]) and in experiment [3] (setting [8]) were 56 nM, 25 nM and above 400 µM, respectively.
Taken in the same sequence, the figures for `C[C@]12CC[C@](C)([C@@](C)(c3cc(Nc4ncc(F)c5cc(Cl)cnc45)ccc3F)N=C1N)S2(=O)=O` [Example 51, N-(3-((1R,2R,5S)-4-amino-1,2,5-trimethyl-8,8-dioxido-8-thia-3-azabicyclo[3.2.1]oct-3-en-2-yl)-4-fluorophenyl)-3-chloro-5-fluoro-1,7-naphthyridin-8-amine] were 11 nM, 381 nM and 21.5 µM.
As to `C[C@]12CC[C@H]([C@@](C)(c3cc(Nc4nccc5nc(C(F)(F)F)cnc45)ccc3F)N=C1N)S2(=O)=O` [Example 87, N-(3-((1R,2R,5S)-4-amino-2,5-dimethyl-8,8-dioxido-8-thia-3-azabicyclo[3.2.1]oct-3-en-2-yl)-4-fluorophenyl)-2-(trifluoromethyl)pyrido[3,4-b]pyrazin-5-amine], the figures for the concentration for half-maximal inhibition (IC50) in experiment [1] (setting [6]), in experiment [2] (setting [7]) and in experiment [3] (setting [8]) were 84 nM, 313 nM and above 44.4 µM, respectively.
As to `Cc1cc(Cl)cnc1C(=O)Nc1ccc(F)c([C@@]2(C)N=C(N)[C@]3(C)CC[C@@]2(C)S3(=O)=O)c1` [Example 32, N-(3-((1R,2R,5S)-4-amino-1,2,5-trimethyl-8,8-dioxido-8-thia-3-azabicyclo[3.2.1]oct-3-en-2-yl)-4-fluorophenyl)-5-chloro-3-methylpicolinamide], the IC50 was 7 nM in experiment [1] (setting [4]), 17 nM in experiment [2] (setting [5]) and 131 µM in experiment [3] (read-out: CatD IC50).
Taken in the same sequence, the figures for `C[C@]1(c2cc(Nc3ncc(F)c4cc(Cl)cnc34)ccc2F)N=C(N)[C@@]2(C)CC[C@@H]1S2(=O)=O` [Example 29, (1R,4R,5S)-2-Amino-4-(5-((3-chloro-5-fluoro-1,7-naphthyridin-8-yl)amino)-2-fluorophenyl)-1,4-dimethyl-8-thia-3-azabicyclo[3.2.1]oct-2-ene 8,8-dioxide] were 1 nM, 52 nM and 733 µM.
With `COCc1ccc(C(=O)Nc2ccc(F)c([C@@]3(C)N=C(N)[C@]4(C)CC[C@H]3S4(=O)=O)c2)nc1` [Example 91, N-(3-((1R,2R,5S)-4-amino-2,5-dimethyl-8,8-dioxido-8-thia-3-azabicyclo[3.2.1]oct-3-en-2-yl)-4-fluorophenyl)-5-(methoxymethyl)-2-pyridinecarboxamide], the IC50 in experiment [1] (setting [6]) came out at 255 nM; in experiment [2] (setting [7]) it was 46 nM; in experiment [3] (setting [8]) it was 3260 µM.
For `C[C@]1(c2cc(NC(=O)c3c(F)cc(Br)cc3F)ccc2F)N=C(N)[C@@]2(C)CC[C@@H]1S2(=O)=O` [Example 125, N-(3-((1S,2R,5R)-4-amino-2,5-dimethyl-8,8-dioxido-8-thia-3-azabicyclo[3.2.1]oct-3-en-2-yl)-4-fluorophenyl)-4-bromo-2,6-difluorobenzamide], the IC50 in experiment [1] (setting [6]) is 103 nM; in experiment [2] (setting [7]) it was 65 nM; in experiment [3] (setting [8]), above 400 µM.

As a reminder, the IC50 is the concentration that gives 50% inhibition.
